A short description of series [1]: Cytotoxicity (resazurin) assay. Here is the method:
For the cytotoxicity (resazurin) assay, HEK293 cells were counted manually in a Neubauer haemocytometer and plated at a density of 4000 cells/well into each well of the 384-well plates containing the 25×(2 μl) concentrated compounds. The medium used was Dulbecco's modified eagle medium (DMEM) supplemented with 10% foetal bovine serum (FBS). Cells were incubated together with the compounds for 20 h at 37° C., 5% CO2. To measure cytotoxicity, 5 μl (equals 100 μM final) resazurin was added to each well after incubation, and incubated for further 3 h at 37° C. with 5% CO2.
After final incubation fluorescence intensity was measured as F ex 560/10 nm, em 590/10 nm (F560/590) using a Tecan M1000 Pro monochromator plate reader. […] The concentration dependent percentage cytotoxicity was fitted to a dose response function (using Pipeline Pilot) and CC50 values determined.

For series [2], the system named is methicillin-resistant S. aureus strain (ATCC 43300). The series is classed as cell-based, Staphylococcus aureus. As to conditions: ATCC 43300, 18 h. Here is the method: Furthermore, sensitivity of a methicillin-resistant S. aureus strain (ATCC 43300) was investigated for palmitoylated CIDAMPs in a microtiter plate screening model, with incubation in Mueller-Hinton medium at 37° C. for 18 h using resazurin as a marker for cell viability.
A sample of each culture was then diluted 40-fold in fresh broth and incubated at 37° C. for 1.5-3 h. […] All the plates were covered and incubated at 37° C. for 18 h.
Inhibition of bacterial growth was determined using resazurin as a marker for cell viability. Resazurin was added to each well, at 0.001% final concentration, and plates incubated at 37° C. for 2 h. Fluorescence intensity was measured, using F (top read), ex 560/10 nm, em 590/10 nm, using a Tecan M1000 Pro monochromator plate reader.

The subject of series [3] is Candida albicans ATCC 24433. In words: CFU-assay, Candida albicans-cidal activity. The series is classed as cell-based. As to the method: Thus, within the present invention, the antimicrobial activity is generally measured in nutrient deficient 10 mM sodium phosphate buffer pH 5.5, containing 0.25% glucose, using the CFU-assay according to Steinberg and Lehrer, 1997 (supra), unless otherwise indicated. The CFU-assay allows determination of the minimal bactericidal concentration (MBC, e.g., MBC90 and MBC100; i.e. the concentration of compound required to achieve a specified reduction in bacterial cell number (microbial death or killing)). […]
HR 1-17 affects C. albicans ATCC 24433 with highest activity at pH 5.5 in the absence of TSB in the medium (see Tables 12, 24). […] Furthermore, the substitution of any of the Arg residues by Gly leads to a dramatic reduction or loss of candidacidal activity (see Table 24).

A further series concerns P. aeruginosa ATCC 10145. In words: CFU-assay, P. aeruginosa-cidal activity. The series is classed as cell-based, Pseudomonas aeruginosa.
Another series has as its system S. aureus ATCC 6538. In words: CFU-assay, S. aureus-cidal activity. The class given is cell-based, Staphylococcus aureus. To be noted: pH 5.5, 0.25% glucose. Here is the method:
Thus, within the present invention, the antimicrobial activity is generally measured in nutrient deficient 10 mM sodium phosphate buffer pH 5.5, containing 0.25% glucose, using the CFU-assay according to Steinberg and Lehrer, 1997 (supra), unless otherwise indicated. The CFU-assay allows determination of the minimal bactericidal concentration (MBC, e.g., MBC90 and MBC100; i.e. the concentration of compound required to achieve a specified reduction in bacterial cell number (microbial death or killing)).
Various peptides corresponding to repeat domains of hornerin (HR 1-11: HRNR 2606-2628; HR 1-17: HRNR 2656-2684 and HR 1-18: HRNR 2656-2677) were tested for P. aeruginosa ATCC 10145-cidal activity in 10 mM Na-phosphate buffer pH 5.5, containing 0.25% glucose by counting the numbers of colonies of surviving bacteria at serial, twofold dilutions from 300 μg/ml down to 19 ng/ml of each peptide (CFU-assay; Steinberg and Lehrer, 1997, Methods Mol. Biol. 78, 169-186).
Staphylococcus aureus is a major skin pathogen, which causes skin infections, in particular in atopic dermatitis. The sensitivity of S. aureus ATCC 6538 towards several CIDAMPs was assessed using the CFU-assay as above (see Example 1). HR 1-18, which lacks S. aureus.-bactericidal activity, is converted in a S. aureus-cidal peptide, when all His are replaced by Arg (HR 1-18 4H-4R; see Table 13 and FIG. 9). […] HR 1-18 4H-4R is rich in Ser and Arg and contains a single Leu residue. When this single Leu was replaced by Gly in S. aureus-cidal HR 1-18 4H-4R (forming HR 1-18 4H-4R/L-G), S. aureus-cidal activity was abolished at both pH 7.0 and pH 5.5 (see Table 13 and FIG. 9).

The test system of the next series is C. neoformans. To be noted: standard conditions at pH 7.4; activity at concentration <32 pg/ml.
For the next series, the system named is C. albicans ATCC 928. As to conditions: standard conditions at pH 7.4; activity at concentration <32 pg/ml.

Values joined by “and” are separate entries in the source; they are usually repeats but may differ in a detail not shown here. Identical values can stand only once. Residues, ends and D or L forms follow the SMILES beside them. Primed or numbered codes have the meaning given here. No end group written: not given here. FITC′ = fluorescein isothiocyanate

`CCCCCCCCCCCCCCCC(=O)N[C@@H](Cc1c[nH]cn1)C(=O)NCC(=O)N[C@@H](CO)C(=O)N[C@@H](CCCNC(=N)N)C(=O)N[C@@H](CO)C(=O)NCC(=O)N[C@@H](CCC(N)=O)C(=O)N[C@@H](CO)C(=O)N[C@@H](CO)C(=O)N[C@@H](CCCNC(=N)N)C(=O)NCC(=O)N[C@@H](CCC(=O)O)C(=O)N[C@@H](CCCNC(=N)N)C(=O)N[C@@H](Cc1c[nH]cn1)C(=O)NCC(=O)N[C@@H](CO)C(=O)N[C@@H](CO)C(=O)N[C@@H](CO)C(=O)NCC(=O)N[C@@H](CO)C(=O)N[C@@H](CO)C(=O)N[C@@H](CO)C(=O)N[C@@H](Cc1c[nH]cn1)C(=O)O` [Pal-HR 1-11] (HELM PEPTIDE1{[CCCCCCCCCCCCCCCC(=O)[*:2]].H.G.S.R.S.G.Q.S.S.R.G.E.R.H.G.S.S.S.G.S.S.S.H}$$$$V2.0) displayed a CC50 in series [1] of over 32 µg/mL. Moreover, the “MIC, S. aureus ATCC 43300” value in series [2] is over 32 µg/mL.

With “GRHGSGLGHSSSHGQHGSGSGRSSSGGPY (Modified peptide derived from human hornerin (HR 1-17 R2681G))”, the MBC90 was determined as 300 µg/mL in series [3] (pH 5.5, 1% TSB) and 0.0375 µg/mL against P. aeruginosa ATCC 10145 (pH 5.0, 0.25% glucose). In addition, the MBC100 in series [3] (pH 5.5, 1% TSB) is over 300 µg/mL; in the series on P. aeruginosa ATCC 10145 (pH 5.0, 0.25% glucose), 0.15 to 0.3 µg/mL.

Take `N=C(N)NCCC[C@H](NC(=O)[C@H](CCCNC(=N)N)NC(=O)[C@H](CS)NC(=O)[C@H](CCCNC(=N)N)NC(=O)[C@H](Cc1c[nH]cn1)NC(=O)[C@H](CO)NC(=O)[C@H](CCCNC(=N)N)NC(=O)[C@H](CS)NC(=O)[C@H](CS)NC(=O)[C@H](CCCNC(=N)N)NC(=O)[C@H](Cc1c[nH]cn1)NC(=O)[C@H](Cc1c[nH]cn1)NC(=O)[C@@H](N)CO)C(=O)O` [LCE3B5668] (H-SHHRCCRSHRCRR-OH; N-terminus and C-terminus assumed): the “MIC, S. aureus ATCC 43300” value in series [2] was at least 32 µg/mL.

In series [3] (pH 5.5, 1% TSB), “GGHGSGLGHSSSHGQHGSGSGRSSSRGPY (Modified peptide derived from human hornerin (HR 1-17 R2657G))” had an MBC90 of over 300 µg/mL and an MBC100 of over 300 µg/mL. In addition, in the series with P. aeruginosa ATCC 10145 (pH 5.0, 0.25% glucose), the MBC90 amounted to 0.0375 µg/mL and the MBC100 came out at 0.3 µg/mL.

For “GRRGGGGGRGGGRGGRGGGGGR (Modified peptide derived from human hornerin (HR 1-18 GR))”, the MBC90 with P. aeruginosa ATCC 10145 (pH 5.0, 0.25% glucose) was under 0.019 µg/mL; with P. aeruginosa ATCC 10145 (pH 5.5, 0.25% glucose), under 6 nM; against S. aureus ATCC 6538, over 300 µg/mL. The MBC100 is 0.075 µg/mL with P. aeruginosa ATCC 10145 (pH 5.0, 0.25% glucose); 0.075 μg/ml and 0.04 μM against P. aeruginosa ATCC 10145 (pH 5.5, 0.25% glucose); over 300 µg/mL in the series with S. aureus ATCC 6538. Besides, in the series on C. neoformans, the “Antifungal activity, C. neoformans ATCC 208821” value is “I (I-inactive)”. Moreover, the “Antifungal activity, C. albcans ATCC90028” value in the series on C. albicans ATCC 928 is “I (I-inactive)”.

In the case of “FITC-GRHGSGLGHSSSHGQHGSGSGR ({FITC′}-GRHGSGLGHSSSHGQHGSGSGR) [FITC-HR 1-18]”, the MBC90 was found to be 2.35 µg/mL in series [3] (pH 5.5, 0.25% glucose); 0.15 µg/mL against P. aeruginosa ATCC 10145 (pH 5.0, 0.25% glucose); 300 µg/mL against S. aureus ATCC 6538. For the same molecule, the MBC100 in series [3] (pH 5.5, 0.25% glucose) is 75 µg/mL; in the series with P. aeruginosa ATCC 10145 (pH 5.0, 0.25% glucose) it was 1.18 µg/mL; in the series on S. aureus ATCC 6538, over 300 µg/mL.

The record behind these values is patent US11479587B2, “Cationic intrinsically disordered antimicrobial peptides” (priority 2016, dated 2022).
